From patent US20250332112A1, “IONIZABLE CATIONIC LIPIDS FOR LIPID NANOPARTICLES” (GENEVANT SCIENCES GMBH, priority 2022, published 2025)

Assays:
[1] = Parent ionizable lipid remaining in liver at 6 h after luciferase mRNA LNP (LC-MS); assay type: in vivo; settings: 6 h after IV 0.5 mg/kg Luciferase mRNA LNP
[2] = Lipid clearance from liver over time after human OTC mRNA LNP (LC-MS); assay type: in vivo; settings: IV 0.5 mg/kg human OTC mRNA LNP, male C57BL/6 mice (n = 4)
Protocol: (§1) LNP formulations encapsulating ornithine transcarbamylase mRNA were injected intravenously at the specified dose levels to male C57BL/6 mice (6-8 weeks old).
(§2) Liver tissues were treated with PBS and homogenized with a FastPrep machine, 3 cycles of 5 m/s×15 s. Homogenates from the PBS-treated control animals was pooled and used for standard curve preparation. Samples were extracted into a deep well plate with 250 μL of an internal suitability standard. Plates were centrifuged for 15 min at 4° C. and 2000 rpm. Analysis was performed using an Agilent 6520 QTOF coupled to an Agilent 1290 UHPLC, using reverse-phase LC separation. Quantitation of the ionizable lipid was by MS/MS against a calibration curve spiked into appropriately matched blank matrix. Calibration used a similar class of synthetic lipid as internal standard.
At various timepoints post-dose, lipid levels were assessed in the liver. Some novel ionizable lipids reported more rapid clearance rates compared to the benchmark (Table 19).

[3] = system: human OTC expression in the liver; experiment: Dose response of human OTC mRNA LNP, OTC expression in liver (ELISA); assay type: in vivo; settings: 24 h, male C57BL/6 mice (n = 4)
Protocol: as §1
Liver homogenates were prepared with PBS, Halt protease inhibitor cocktail and FastPrep homogenization, standardized to 2 mg/mL protein with a BCA Protein Assay, and then analyzed by ELISA. Briefly, samples were diluted with PBS and plated on Nunc Maxisorp plates. A standard curve using human […] protein was prepared from the naïve animal controls (vehicle). After 2 h incubation the plates were washed, and the primary antibody was added. After 1 h incubation, the secondary antibody was added and incubated for another hour. After washing, TMB Substrate was added for color development and the reaction was stopped with 2 N sulfuric acid. The plate was read at 450/570 OD.
At 24 h post-dose, the novel lipid formulations reported dose-dependent increases in human OTC expression in the liver (Table 15).

[4] = system: luciferase activity in the liver; experiment: Luciferase activity in liver after intravenous luciferase mRNA LNP; assay type: in vivo; settings: 0.5 mg/kg IV, 6 h post-IV administration, BALB/c mice (n = 4)
[5] = Particle characteristics of LNPs containing luciferase mRNA and novel ionizable lipids; assay type: physicochemical; settings: Table 6; luciferase mRNA LNP 1.6:54.6:32.8:10.9
How it was run: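 LNPs made from PEG-lipid, ionizable lipid, cholesterol and phospholipid in ethanol, T-mixed with luciferase mRNA in 100 mM acetate pH 5. Products were dialysed, concentrated, and dialysed into 5 mM Tris, 10% sucrose, pH 8, then 0.2 μm filtered. mRNA was measured by RiboGreen, and size and polydispersity by dynamic light scattering on a Zetasizer.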

[6] = Particle characteristics of LNPs containing EGFP mRNA and novel ionizable lipids; assay type: physicochemical; settings: EGFP mRNA LNP 1.6:54.6:32.8:10.9
Protocol: The lipid solution contains 4 components: a PEG-conjugated lipid, an ionizable lipid, cholesterol, and a phospholipid (e.g., DSPC). Lipid stocks were prepared using the lipid identities and molar ratios as described, to achieve a total concentration of ˜7 mg/mL in 100% ethanol. […] Equal volumes of the lipid and nucleic acid solutions were blended at a flow rate of 400 mL/min through a T-connector, and diluted with ˜4 volumes of PBS, pH 7.4. Formulations were placed in Slide-A-Lyzer dialysis units (MWCO 10,000) and dialyzed overnight against 10 mM Tris, 500 mM NaCl, pH 8 buffer. Following dialysis, the formulations were concentrated to ˜0.6 mg/mL using VivaSpin concentrator units (MWCO 100,000) and dialyzed overnight against 5 mM Tris, 10% sucrose, pH 8 buffer. Formulations were filtered through a 0.2 μm syringe filter (PES membrane). Nucleic acid concentration was determined by the RiboGreen assay. Particle size and polydispersity were determined using a Malvern Nano Series Zetasizer.
LNP formulations containing novel ionizable lipids all produced stable particles with high encapsulation efficiency (Tables 20-23).

[7] = Parent ionizable lipid remaining in liver at 24 h after EGFP mRNA LNP (LC-MS); assay type: in vivo; settings: 24 h after IV 0.5 mg/kg EGFP mRNA LNP, female BALB/c mice (n = 4)
Protocol: as §2
At 24 h post-dose, some treatment groups reported lower levels of novel ionizable lipid in mouse liver compared to the benchmark (Tables 28-31).

[8] = system: EGFP expression in the liver; experiment: EGFP expression in liver after intravenous EGFP mRNA LNP (ELISA); settings: 0.5 mg/kg IV, 24 h post-IV administration, BALB/c mice (n = 4)
Protocol: LNP formulations encapsulating enhanced green fluorescent protein mRNA were injected intravenously at 0.5 mg/kg to female BALB/c mice (6-8 weeks old). On day of injection, the LNP stocks were filtered and diluted to the required dosing concentration with phosphate buffered saline. At 24 hours post-administration, animals were anaesthetized with a lethal dosage of ketamine/xylazine. Liver samples (left lateral lobe) were collected, weighed, and flash frozen in liquid nitrogen. Liver samples were stored in FastPrep® tubes at −80° C. until analyzed for EGFP expression.
Liver homogenates were prepared in cell extraction buffer, diluted, and analyzed for EGFP protein levels using ELISA, according to manufacturer's instructions (Abcam, GFP ELISA Kit).

[9] = Table 18, female BALB/c mice (n = 4)

CCCCCCCCCCON(C(=O)CCCN(C)C)C(CCCCCCCCCC)CCCCCCC(=O)OCCC(CCCCC)CCCCC (centres unmarked) [Compound 43, 3-pentyloctyl 8-[N-(decyloxy)-4-(dimethylamino)butanamido]octadecanoate]
Parent ionizable lipid remaining in liver, Average ([1]; Table 17, female mice (n = 4)): 25.97 nmol/g liver | Parent ionizable lipid remaining in liver, Average [1, 9]: 23.83 nmol/g liver | Parent ionizable lipid remaining in liver, Average ([2]; 0.25 h post-dose): 22.97 nmol/g liver | Parent ionizable lipid remaining in liver, Average ([2]; 1 h post-dose): 38.91 nmol/g liver | Parent ionizable lipid remaining in liver, Average ([2]; 3 h post-dose): 28.99 nmol/g liver | Parent ionizable lipid remaining in liver, Average ([2]; 6 h post-dose): 24.19 nmol/g liver | Parent ionizable lipid remaining in liver, Average ([2]; 24 h post-dose): 13.50 nmol/g liver | Parent ionizable lipid remaining in liver, Average ([2]; 168 h post-dose): 0.19 nmol/g liver | Human OTC expression ([3]; 0.3 mg/kg IV): 1247 ng hOTC/mg protein in liver | Human OTC expression ([3]; 1 mg/kg IV): 5713 ng hOTC/mg protein in liver | Human OTC expression ([3]; 3 mg/kg IV): 12887 ng hOTC/mg protein in liver | Luc Activity ([4]; Table 13): 1.04E+08 pg/g liver | Final Product % EE [5]: 99% | Final Product PDI [5]: 0.05 | Final Product Z-avg [5]: 73 nm

CCCCCCCCCCC(CCCCCCC(=O)OCCC(CCCCC)CCCCC)N(CCCCCCCC(=O)OCCC(CCCCC)CCCCC)C(=O)CCCN(C)C (centres unmarked) [Compound 67]
Parent ionizable lipid remaining in liver, Average [1, 9]: 31.32 nmol/g liver | Parent ionizable lipid remaining in liver, Average ([2]; 0.25 h post-dose): 12.37 nmol/g liver | Parent ionizable lipid remaining in liver, Average ([2]; 1 h post-dose): 21.11 nmol/g liver | Parent ionizable lipid remaining in liver, Average ([2]; 3 h post-dose): 16.12 nmol/g liver | Parent ionizable lipid remaining in liver, Average ([2]; 6 h post-dose): 10.82 nmol/g liver | Parent ionizable lipid remaining in liver, Average ([2]; 24 h post-dose): 11.31 nmol/g liver | Parent ionizable lipid remaining in liver, Average ([2]; 168 h post-dose): 0.72 nmol/g liver | Luc Activity ([4]; Table 12): 1.31E+08 pg/g liver

CCCCCCCCCCN(C(=O)CCCN(C)C)C(CCCCCCCCC)CCCCC(F)C(=O)OCC(CCCCCC)CCCCCCCC (centres unmarked) [Compound 120, 2-Hexyldecyl 7-(N-decyl-4-(dimethylamino)butanamido)-2-fluorohexadecanoate]
Final Product % EE ([6]; Table 23): 99% | Final Product PDI ([6]; Table 23): 0.15 | Final Product Z-avg ([6]; Table 23): 69 nm | Parent ionizable lipid remaining in liver, Average ([7]; Table 31): 4.8 nmol/g liver | EGFP ([8]; Table 27): 1.90E+07 pg/g liver

CCCCCCCCCCC(CCCCCCC(=O)OC(CCCCCC)CCCCCC)N(CCCCCCC(F)(F)C(=O)OC(CCCCCC)CCCCCC)C(=O)CCCN(C)C (centres unmarked) [Compound 116, Tridecan-7-yl 8-(N-(7,7-difluoro-8-oxo-8-(tridecan-7-yloxy)octyl)-4-(dimethylamino)-butanamido)octadecanoate]
Final Product % EE ([6]; Table 22): 98% | Final Product PDI ([6]; Table 22): 0.09 | Final Product Z-avg ([6]; Table 22): 75 nm | Parent ionizable lipid remaining in liver, Average ([7]; Table 30): 60.05 nmol/g liver | EGFP ([8]; Table 26): 2.93E+07 pg/g liver

CCCCCC/C=C\CCON(C(=O)CCCCN(C)C)C(CCCCCCCCCC)CCCCCCC(=O)OCCC(CCCCC)CCCCC (centres unmarked) [Compound 94, 3-Pentyloctyl (Z)-8-(N-(dec-3-en-1-yloxy)-5-(dimethylamino)pentanamido)octadecanoate]
Final Product % EE ([6]; Table 21): 98% | Final Product PDI ([6]; Table 21): 0.06 | Final Product Z-avg ([6]; Table 21): 83 nm | Parent ionizable lipid remaining in liver, Average ([7]; Table 29): 6.57 nmol/g liver | EGFP ([8]; Table 25): 1.20E+06 pg/g liver

CCCCCCCCCCON(C(=O)CCCCN(C)C)C(CCCCCCCCCC)CCCCCCC(=O)OCCC(CCCCCCC)CCCCCCC (centres unmarked) [Compound 99, 3-Heptyldecyl 8-(N-(decyloxy)-5-(dimethylamino)pentanamido)octadecanoate]
Final Product % EE ([6]; Table 21): 97% | Final Product PDI ([6]; Table 21): 0.04 | Final Product Z-avg ([6]; Table 21): 86 nm | Parent ionizable lipid remaining in liver, Average ([7]; Table 29): 19.93 nmol/g liver | EGFP ([8]; Table 25): 1.05E+06 pg/g liver

CCCCCCCCCCN(C(=O)CCCN(C)C)C(CCCCCCCCC)CCCCCCC(F)C(=O)OC(CCCCCCC)CCCCCCC (centres unmarked) [Compound 114, Pentadecan-8-yl 9-(N-decyl-4-(dimethylamino)butanamido)-2-fluorooctadecanoate]
Final Product % EE ([6]; Table 22): 98% | Final Product PDI ([6]; Table 22): 0.08 | Final Product Z-avg ([6]; Table 22): 73 nm | Parent ionizable lipid remaining in liver, Average ([7]; Table 30): 12.79 nmol/g liver | EGFP ([8]; Table 26): 4.29E+07 pg/g liver

CCCCCCCCCCN(C(=O)CCCN(C)C)C(CCCCCCCCC)CCCCC(F)C(=O)OC(CCCCCC)CCCCCC (centres unmarked) [Compound 121, Tridecan-7-yl 7-(N-decyl-4-(dimethylamino)butanamido)-2-fluorohexadecanoate]
Final Product % EE ([6]; Table 23): 99% | Final Product PDI ([6]; Table 23): 0.10 | Final Product Z-avg ([6]; Table 23): 77 nm | Parent ionizable lipid remaining in liver, Average ([7]; Table 31): 2.1 nmol/g liver | EGFP ([8]; Table 27): 3.81E+07 pg/g liver

CCCCCCCCCCC(CCCCCCC(=O)OCC(CCCCCC)CCCCCCCC)N(CCCCCCC(F)(F)C(=O)OCC(CCCCCC)CCCCCCCC)C(=O)CCCN(C)C (centres unmarked) [Compound 33]
Parent ionizable lipid remaining in liver, Average ([2]; 0.25 h post-dose): 33.97 nmol/g liver | Parent ionizable lipid remaining in liver, Average ([2]; 1 h post-dose): 98.57 nmol/g liver | Parent ionizable lipid remaining in liver, Average ([2]; 3 h post-dose): 76.20 nmol/g liver | Parent ionizable lipid remaining in liver, Average ([2]; 6 h post-dose): 86.57 nmol/g liver | Parent ionizable lipid remaining in liver, Average ([2]; 24 h post-dose): 58.68 nmol/g liver | Parent ionizable lipid remaining in liver, Average ([2]; 168 h post-dose): 6.22 nmol/g liver | Human OTC expression ([3]; 0.3 mg/kg IV): 660 ng hOTC/mg protein in liver | Human OTC expression ([3]; 1 mg/kg IV): 2954 ng hOTC/mg protein in liver | Human OTC expression ([3]; 3 mg/kg IV): 11080 ng hOTC/mg protein in liver
